# Reference: publication PMC6934184, “Selective DNA-PKcs inhibition extends the therapeutic index of localized radiotherapy and chemotherapy” (The Journal of Clinical Investigation, 2019)
# Target: T1, PLK2 (Homo sapiens, UniProt Q9NYY3)
# T1 construct: purchased Thermo Fisher Scientific (Life Technologies) SelectScreen
# Assay: SelectScreen Z'LYTE
# Type: biochemical
# Method in brief: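 Percent values come from Thermo SelectScreen profiling of NU5455, combining activity and binding assays. CSF1R was run in Z'LYTE format at Km app ATP, and CAMK1 in Adapta format with ATP listed at 10.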
# T1 sequence (Q9NYY3 whole entry): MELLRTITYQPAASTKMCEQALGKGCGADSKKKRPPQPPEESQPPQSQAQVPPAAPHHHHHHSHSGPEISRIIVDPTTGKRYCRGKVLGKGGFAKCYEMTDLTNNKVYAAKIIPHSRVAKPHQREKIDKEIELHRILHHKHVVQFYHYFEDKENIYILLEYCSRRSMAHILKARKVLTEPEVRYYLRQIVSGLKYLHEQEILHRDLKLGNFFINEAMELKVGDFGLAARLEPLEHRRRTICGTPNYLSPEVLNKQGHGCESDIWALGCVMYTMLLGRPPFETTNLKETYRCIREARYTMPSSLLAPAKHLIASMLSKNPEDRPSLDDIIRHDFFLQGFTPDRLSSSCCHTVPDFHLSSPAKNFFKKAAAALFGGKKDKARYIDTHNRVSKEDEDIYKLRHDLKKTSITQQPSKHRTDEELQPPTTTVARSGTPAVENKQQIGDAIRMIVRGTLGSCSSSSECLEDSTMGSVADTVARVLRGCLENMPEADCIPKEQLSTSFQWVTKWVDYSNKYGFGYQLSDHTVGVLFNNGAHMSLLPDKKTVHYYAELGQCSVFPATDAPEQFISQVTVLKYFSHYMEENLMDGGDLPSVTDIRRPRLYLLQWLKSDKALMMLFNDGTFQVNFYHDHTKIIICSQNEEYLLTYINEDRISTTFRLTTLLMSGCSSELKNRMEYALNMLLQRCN
structure (smiles),measurement,value
CN(C(=O)CN1CCOCC1)c1ccc2sc3c(-c4cccc5c(=O)cc(N6CC7CCC(C6)O7)oc45)cccc3c2c1 [NU5455],inhibition at 1 µM,14.1%
